Measurements taken from ChEMBL document CHEMBL1201862, “PubChem BioAssay data set” (2004).
The source made the active and inactive calls.

Legend:
[1] = biological target: T1, Alkaline phosphatase, tissue-nonspecific isozyme (Homo sapiens, UniProt P05186)
T1 sequence (P05186 whole entry): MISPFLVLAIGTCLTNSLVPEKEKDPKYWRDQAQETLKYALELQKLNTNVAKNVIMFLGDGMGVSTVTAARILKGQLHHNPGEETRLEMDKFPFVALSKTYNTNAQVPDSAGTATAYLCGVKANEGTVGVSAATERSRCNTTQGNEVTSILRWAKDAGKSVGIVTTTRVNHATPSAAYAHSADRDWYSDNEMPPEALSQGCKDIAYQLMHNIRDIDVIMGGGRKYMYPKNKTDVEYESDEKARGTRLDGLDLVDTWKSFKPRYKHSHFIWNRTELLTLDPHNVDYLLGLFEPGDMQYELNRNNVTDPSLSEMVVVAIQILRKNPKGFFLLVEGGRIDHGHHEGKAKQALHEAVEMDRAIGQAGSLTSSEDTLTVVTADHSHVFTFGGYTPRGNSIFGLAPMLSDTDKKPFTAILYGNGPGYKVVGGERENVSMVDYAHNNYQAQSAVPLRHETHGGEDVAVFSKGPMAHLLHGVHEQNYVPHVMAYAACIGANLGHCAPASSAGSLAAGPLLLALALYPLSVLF

Mucolipin-3 = biological target: T2, Mucolipin-3 (Homo sapiens, UniProt Q8TDD5); assay: Dose response cell-based high-throughput screening assay for agonists of the transient receptor potential channel ML3 (TRPML3). [Related pubchem assays: 1526, 1424, 1448 ]; format: functional
T2 sequence (Q8TDD5 whole entry): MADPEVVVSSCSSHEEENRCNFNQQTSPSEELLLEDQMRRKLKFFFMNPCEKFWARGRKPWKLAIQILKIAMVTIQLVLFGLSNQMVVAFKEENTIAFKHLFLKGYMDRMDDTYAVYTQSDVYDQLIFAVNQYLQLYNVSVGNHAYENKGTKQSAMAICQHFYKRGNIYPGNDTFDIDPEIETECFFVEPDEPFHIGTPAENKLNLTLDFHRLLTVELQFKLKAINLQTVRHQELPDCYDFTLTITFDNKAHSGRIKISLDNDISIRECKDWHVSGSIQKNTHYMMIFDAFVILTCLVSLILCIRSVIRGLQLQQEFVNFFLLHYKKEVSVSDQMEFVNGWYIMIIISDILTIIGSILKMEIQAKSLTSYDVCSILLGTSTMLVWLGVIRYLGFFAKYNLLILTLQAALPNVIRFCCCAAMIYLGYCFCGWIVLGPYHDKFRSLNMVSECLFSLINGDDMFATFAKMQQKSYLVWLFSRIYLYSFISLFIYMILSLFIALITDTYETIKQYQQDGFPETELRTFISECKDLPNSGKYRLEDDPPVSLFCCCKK

Ion channel NompC = Ion channel NompC (Danio rerio, UniProt Q7T1G6); assay: Fluorescence counterscreen assay for TRPML3 agonists: dose response cell-based high-throughput screening assay to identify agonists of the transient receptor potential channel N1 (TRPN1). [Related pubchem assays: 1526, 1424, 1448 ]; format: functional
Ion channel NompC, sequence (Q7T1G6 whole entry): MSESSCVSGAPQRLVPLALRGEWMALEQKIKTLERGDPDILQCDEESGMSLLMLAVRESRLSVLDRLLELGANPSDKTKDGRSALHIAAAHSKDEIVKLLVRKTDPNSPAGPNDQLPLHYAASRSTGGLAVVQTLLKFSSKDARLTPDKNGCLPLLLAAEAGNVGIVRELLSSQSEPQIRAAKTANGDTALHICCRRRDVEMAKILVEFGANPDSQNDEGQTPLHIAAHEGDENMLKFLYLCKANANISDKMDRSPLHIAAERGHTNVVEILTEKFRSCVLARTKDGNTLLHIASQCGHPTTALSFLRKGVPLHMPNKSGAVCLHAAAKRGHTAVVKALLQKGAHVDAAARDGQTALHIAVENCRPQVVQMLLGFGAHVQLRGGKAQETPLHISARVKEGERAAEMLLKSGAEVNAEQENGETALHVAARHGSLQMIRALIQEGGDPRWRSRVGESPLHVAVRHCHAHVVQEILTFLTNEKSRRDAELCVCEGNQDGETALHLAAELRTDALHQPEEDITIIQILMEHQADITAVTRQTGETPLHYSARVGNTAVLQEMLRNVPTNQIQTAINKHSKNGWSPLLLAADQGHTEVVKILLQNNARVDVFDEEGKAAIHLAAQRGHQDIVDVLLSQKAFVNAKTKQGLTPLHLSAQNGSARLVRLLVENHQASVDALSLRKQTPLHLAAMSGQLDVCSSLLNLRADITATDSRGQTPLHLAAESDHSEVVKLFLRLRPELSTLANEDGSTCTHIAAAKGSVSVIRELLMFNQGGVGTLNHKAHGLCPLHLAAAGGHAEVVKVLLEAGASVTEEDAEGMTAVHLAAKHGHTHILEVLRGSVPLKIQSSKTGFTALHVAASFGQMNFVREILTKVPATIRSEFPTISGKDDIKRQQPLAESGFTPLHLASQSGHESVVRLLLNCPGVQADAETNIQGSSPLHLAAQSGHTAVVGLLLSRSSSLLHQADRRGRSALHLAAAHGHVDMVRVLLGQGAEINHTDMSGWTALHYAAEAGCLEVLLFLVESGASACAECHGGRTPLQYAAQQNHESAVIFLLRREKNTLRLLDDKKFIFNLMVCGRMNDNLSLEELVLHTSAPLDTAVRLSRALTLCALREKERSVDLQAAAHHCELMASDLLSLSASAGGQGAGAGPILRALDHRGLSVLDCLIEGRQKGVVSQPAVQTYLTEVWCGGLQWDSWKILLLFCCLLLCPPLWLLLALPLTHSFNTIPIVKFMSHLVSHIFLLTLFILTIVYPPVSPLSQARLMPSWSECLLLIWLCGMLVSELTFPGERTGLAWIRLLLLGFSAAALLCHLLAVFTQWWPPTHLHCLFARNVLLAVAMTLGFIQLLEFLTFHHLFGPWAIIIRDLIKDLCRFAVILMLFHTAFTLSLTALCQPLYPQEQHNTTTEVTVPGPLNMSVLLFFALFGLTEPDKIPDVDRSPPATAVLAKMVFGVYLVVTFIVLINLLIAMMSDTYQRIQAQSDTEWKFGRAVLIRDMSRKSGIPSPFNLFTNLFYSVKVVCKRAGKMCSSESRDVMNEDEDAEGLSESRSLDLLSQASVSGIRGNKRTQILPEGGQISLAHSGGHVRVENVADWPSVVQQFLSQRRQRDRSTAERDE

NADPH oxidase 1 = biological target: T3, NADPH oxidase 1 (Homo sapiens, UniProt Q9Y5S8); format: functional, cell-based;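 further: Cell-based assay with luminescence read-out, IC50 derived from inhibitor dose-response curves; intracellular ROS from endogenous NOX1 in intact HT29 colon cancer cells; potency of inhibitors that lower the ROS luminescence signal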
T3 sequence (Q9Y5S8 whole entry): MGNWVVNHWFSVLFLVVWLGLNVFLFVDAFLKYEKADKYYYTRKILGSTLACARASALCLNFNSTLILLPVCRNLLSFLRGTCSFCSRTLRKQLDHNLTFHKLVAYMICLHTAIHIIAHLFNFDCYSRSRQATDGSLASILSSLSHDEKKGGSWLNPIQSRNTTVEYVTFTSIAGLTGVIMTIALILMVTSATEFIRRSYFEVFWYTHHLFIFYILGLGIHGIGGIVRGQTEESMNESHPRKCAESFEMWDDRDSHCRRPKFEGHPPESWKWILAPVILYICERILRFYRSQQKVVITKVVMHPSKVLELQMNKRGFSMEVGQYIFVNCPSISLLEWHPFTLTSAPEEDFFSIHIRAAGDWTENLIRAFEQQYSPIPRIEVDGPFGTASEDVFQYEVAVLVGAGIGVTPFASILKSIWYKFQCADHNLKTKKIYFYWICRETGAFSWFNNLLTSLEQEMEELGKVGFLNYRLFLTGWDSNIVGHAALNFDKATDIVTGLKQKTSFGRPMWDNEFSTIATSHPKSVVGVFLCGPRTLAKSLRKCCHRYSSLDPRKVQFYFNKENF

[2] = biological target: T4, Eukaryotic translation initiation factor 2-alpha kinase 3 (Homo sapiens, UniProt Q9NZJ5); assay: Dose response cell-based high-throughput screening assay to measure PERK inhibition. [Related pubchem assays: 1416 ]; format: functional
T4 sequence (Q9NZJ5 whole entry): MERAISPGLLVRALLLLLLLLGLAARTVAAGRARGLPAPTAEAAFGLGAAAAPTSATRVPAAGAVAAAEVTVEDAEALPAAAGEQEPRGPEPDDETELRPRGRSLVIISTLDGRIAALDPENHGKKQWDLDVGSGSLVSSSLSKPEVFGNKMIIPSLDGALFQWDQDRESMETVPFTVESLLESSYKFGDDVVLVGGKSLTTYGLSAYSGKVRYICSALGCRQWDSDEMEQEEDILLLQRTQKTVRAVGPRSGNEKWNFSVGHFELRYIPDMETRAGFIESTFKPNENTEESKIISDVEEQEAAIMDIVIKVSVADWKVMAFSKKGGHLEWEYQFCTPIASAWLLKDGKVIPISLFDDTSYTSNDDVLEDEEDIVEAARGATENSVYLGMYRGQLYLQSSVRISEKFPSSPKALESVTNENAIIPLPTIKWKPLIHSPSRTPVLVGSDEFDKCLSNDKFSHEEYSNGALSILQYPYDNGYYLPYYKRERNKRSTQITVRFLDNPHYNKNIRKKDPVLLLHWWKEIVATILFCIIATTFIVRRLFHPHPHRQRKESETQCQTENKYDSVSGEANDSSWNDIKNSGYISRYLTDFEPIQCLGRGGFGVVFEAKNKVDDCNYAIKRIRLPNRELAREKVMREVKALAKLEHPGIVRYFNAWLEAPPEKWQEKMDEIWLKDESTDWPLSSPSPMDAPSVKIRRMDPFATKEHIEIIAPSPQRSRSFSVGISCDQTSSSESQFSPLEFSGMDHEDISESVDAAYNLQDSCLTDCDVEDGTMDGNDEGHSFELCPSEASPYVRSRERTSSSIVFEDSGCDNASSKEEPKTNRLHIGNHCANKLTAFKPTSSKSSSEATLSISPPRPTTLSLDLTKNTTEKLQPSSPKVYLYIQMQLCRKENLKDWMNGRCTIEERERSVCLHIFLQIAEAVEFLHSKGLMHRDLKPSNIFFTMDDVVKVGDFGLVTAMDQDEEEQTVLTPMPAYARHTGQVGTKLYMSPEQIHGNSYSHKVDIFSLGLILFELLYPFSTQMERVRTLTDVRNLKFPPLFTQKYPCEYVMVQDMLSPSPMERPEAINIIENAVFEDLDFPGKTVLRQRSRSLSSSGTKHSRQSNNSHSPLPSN

[3] = biological target: T4, Eukaryotic translation initiation factor 2-alpha kinase 3; assay: Counterscreen assay for PERK inhibitors: Dose response cell-based high throughput screening assay to measure inhibition of PERK at 6 hours. [Related pubchem assays: 1522, 1416 ]; format: functional
[4] = A Cell Based Secondary Assay To Explore Cytotoxicity of Compounds that Sensitize Mycobacterium Tuberculosis to Beta-Lactam Antibiotics.; format: functional
Paired box protein Pax-8 = Paired box protein Pax-8 (Homo sapiens, UniProt Q06710); assay: PAX8 transcriptional activity inhibition in RMG-I – RMG-I cells, luciferase, cherry-pick, dose response (AID 687027); format: functional, cell-based;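 further: luciferase reporter driven by Pax8 target thyroperoxidase promoter measured by SteadyGlo luminescence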
Paired box protein Pax-8, sequence (Q06710 whole entry): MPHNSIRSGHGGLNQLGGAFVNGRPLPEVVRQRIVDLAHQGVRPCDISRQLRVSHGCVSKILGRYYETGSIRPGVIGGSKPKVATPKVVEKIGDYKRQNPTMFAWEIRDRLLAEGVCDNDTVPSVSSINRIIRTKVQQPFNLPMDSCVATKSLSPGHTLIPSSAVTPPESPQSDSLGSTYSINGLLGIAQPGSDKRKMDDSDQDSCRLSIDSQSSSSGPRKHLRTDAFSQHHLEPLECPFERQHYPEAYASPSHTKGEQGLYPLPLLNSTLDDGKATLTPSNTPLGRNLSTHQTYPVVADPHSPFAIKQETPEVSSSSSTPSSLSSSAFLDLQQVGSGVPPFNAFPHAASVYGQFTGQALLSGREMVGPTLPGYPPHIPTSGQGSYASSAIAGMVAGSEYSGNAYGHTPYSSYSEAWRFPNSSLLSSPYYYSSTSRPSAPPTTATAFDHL

[5] = OVCAR-3 cell viability loss – plate reader, dry powder samples, PAX8 inhibitor project, dose response (AID 743044); format: functional, cell-based
[6] = OVCAR8 cell viability loss – plate reader, dry powder samples, PAX8 project, dose response (AID 743197); format: functional, cell-based; settings: OVCAR-8
[7] = P. falciparum Dd2 growth inhibitors, dose response, SYBR Green, cherry-picked samples (AID 1159567); format: functional, cell-based
[8] = toxicity to human hepatoma HepG2 cells – cell-based, cherry-picked samples, cytotoxicity control, dose response (AID 1159577); format: functional
[9] = growth inhibition of yeast DHODH-expressing 3D7 parasites – SYBR Green, dry powder samples, dose response (AID 1159570); format: functional, cell-based;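 further: parasite growth measured after 72 hours of compound exposure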
[10] = toxicity to human HepG2 hepatoma cells – cell-based, plate reader, dry powder samples, cytotoxicity control, dose response (AID 1159569); format: functional;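 further: inhibitor potency with signal falling toward the positive control level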
[11] = Dd2 malaria parasite growth inhibition potency – SYBR Green, dry powder samples, dose response (AID 1159566); format: functional, cell-based;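 further: potency for growth inhibition with lower SYBR green DNA signal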
[12] = growth inhibition of PfATP4-mutant resistant parasites – NITD609-resistant line, SYBR Green, dry powder, dose response (AID 1159571); format: functional, cell-based;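 further: parasites synchronized at ring stage by sorbitol before testing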

In the case of `COc1ccc(-c2nc3ccc(C)cn3c2NCc2ccc3c(c2)OCO3)cc1`, the EC50 [1] is reported as > 100 µM (not active).

For `CCOC(=O)c1c(NC(=O)COc2ncnc3ccccc23)sc(C)c1C`, the EC50 [1] was > 100 µM (not active).

In the case of `CCNC(=S)N(Cc1cccs1)Cc1cc2cc(OCC)ccc2nc1O`, the EC50 (Mucolipin-3) is reported as > 29.9 µM (not active) and the EC50 (Ion channel NompC) is reported as > 29.9 µM (not active).

With `C=C(NNc1c(Cl)c(Cl)nc(C(=O)O)c1Cl)c1ccc(O)cc1` the IC50 (NADPH oxidase 1) was 4.45 µM (active).

In the case of `CC(=O)Nc1ccc(NC(=O)Nc2cc(C)cc(C)c2)cc1`, the EC50 [2] is reported as > 55.7 µM (not active) and the EC50 [3] is reported as > 55.7 µM (not active).

In the case of `Nc1c(Cl)cc(-c2csc(N3CCCC3c3nc4cc(Cl)c(N5CCCCC5)cc4n3CCCO)n2)cc1Cl` (stereo not given), the CC50 [4] is reported as > 40 µM (active).

With `COc1ccccc1C#Cc1ccc2c(c1)O[C@@H](CN(C)Cc1cncnc1)[C@H](C)CN([C@H](C)CO)S2(=O)=O` the AC50 (Paired box protein Pax-8) was 2.16 µM (active), the AC50 [5] was 32.6 µM (active) and the AC50 [6] was 29 µM (active).

With `C/C=C/c1ccc([C@H]2[C@H](CO)N(c3nc(CC)cs3)[C@H]2CNC(C)C)cc1` the AC50 [7] was 0.829 µM (active) and the AC50 [8] was 20 µM (active).

In the case of `C[C@@H]1CN([C@@H](C)CO)C(=O)c2cccc(NC(=O)c3ccc(-c4nccs4)cc3)c2O[C@@H]1CN(C)C(=O)Nc1cccc2ccccc12`, the AC50 [9] is reported as 0.956 µM (active), the AC50 [10] is reported as 53.3 µM (active) and the AC50 [7] is reported as 2.9 µM (active). For the same molecule, the AC50 [11] was 0.334 µM (active), the AC50 [8] was > 39 µM (inactive) and the AC50 [12] was 0.733 µM (active).

In the case of `Oc1ccc(-c2nc(-c3ccccc3)c(-c3ccccc3)[nH]2)cc1`, the IC50 (NADPH oxidase 1) is reported as > 17 µM (not active).
